Laboratory results taken from the OPERA property sets (Mansouri et al. 2018).
≈ marks a conversion by molar mass, not a printed value.

Conditions: for solubility: 22 °C

Row | Compound | logP | solubility
1 | CCCCCCN(CCCCCC)C(=O)COC(=O)c1ccccc1 | 6.53 | 
2 | O=C(COC(=O)c1ccccc1)NC(CO)(CO)CO | 0.25 | 
3 | CC(=O)NC(=O)COC(=O)c1ccccc1 | 1.24 | 3980 µM (≈ 880 µg/mL)
4 | CCN(CC)C(=O)COC(=O)c1ccccc1 |  | 8500 µM (≈ 2000 µg/mL)
5 | CCCCCCN(C)C(=O)COC(=O)c1ccccc1 | 2.99 | 
6 | CNC(=O)COC(=O)c1ccccc1 | 0.99 | 19200 µM (≈ 3700 µg/mL)
7 | C[C@H](NC(=O)COC(=O)c1ccccc1)C(N)=O |  | 1920 µM (≈ 480 µg/mL)
8 | CC(O)CN(CC(C)O)C(=O)COC(=O)c1ccccc1 (stereo not drawn) | 0.66 | 
9 | CCCCCCNC(=O)COC(=O)c1ccccc1 | 2.81 | 125 µM (≈ 33 µg/mL)
10 | CN(C)C(=O)COC(=O)c1ccccc1 |  | 42500 µM (≈ 8800 µg/mL)
11 | O=C(OCC(=O)N1CCOCC1)c1ccccc1 |  | 16900 µM (≈ 4200 µg/mL)
12 | CCCCNC(=O)COC(=O)c1ccccc1 | 2.36 | 1740 µM (≈ 410 µg/mL)
13 | CCCNC(=O)COC(=O)c1ccccc1 | 1.88 | 2890 µM (≈ 640 µg/mL)
14 | CC(=O)N(C)C(=O)COC(=O)c1ccccc1 | 1.58 | 1360 µM (≈ 320 µg/mL)
15 | CCCCN(CCCC)C(=O)COC(=O)c1ccccc1 |  | 275 µM (≈ 80 µg/mL)
16 | CCNC(=O)COC(=O)c1ccccc1 | 1.28 | 5790 µM (≈ 1200 µg/mL)
17 | COCCN(CCOC)C(=O)COC(=O)c1ccccc1 | 1.28 | 
18 | O=C(OCC(=O)N1CCCCC1)c1ccccc1 |  | 3150 µM (≈ 780 µg/mL)
19 | O=C(OCC(=O)N1CCC1C(=O)O)c1ccccc1 (stereo not drawn) | 0.79 | 
20 | CC(C)(C)NC(=O)COC(=O)c1ccccc1 | 2.26 | 1360 µM (≈ 320 µg/mL)
21 | CC(=O)N(C)CCOC(=O)c1ccccc1 | 1.24 | 
22 | CC(NC(=O)COC(=O)c1ccccc1)C(N)=O (stereo not drawn) | 0.42 | 

Further lines, results first:

Row | logP | solubility | Compound
23 | 0.69 | 22900 µM (≈ 4100 µg/mL) | NC(=O)COC(=O)c1ccccc1
24 | 2.5 |  | CCCC(=O)OCOC(=O)c1ccccc1OC(C)=O
25 | 0.2 |  | NC(=O)C1CCCN1C(=O)COC(=O)c1ccccc1 (stereo not drawn)
26 |  | 2870 µM (≈ 750 µg/mL) | O=C(OCC(=O)N1CCCCCC1)c1ccccc1
27 | 1.73 | 1850 µM (≈ 410 µg/mL) | CC(C)NC(=O)COC(=O)c1ccccc1
28 | 1.46 |  | CC(=O)Oc1ccccc1C(=O)OCCN(C)C(C)=O
29 |  | 2740 µM (≈ 710 µg/mL) | C=CCN(CC=C)C(=O)COC(=O)c1ccccc1
30 | 2.3 |  | CCN(CC)C(=O)C(C)OC(=O)c1ccccc1 (stereo not drawn)
31 | 2.98 |  | CCCOC(=O)n1c(-c2cscn2)nc2ccccc21
32 | 0.63 | 44800 µM (≈ 11800 µg/mL) | O=C(OCC(=O)N1CCC(O)CC1)c1ccccc1
